Source: patent US20170218042A1, “METHODS OF ISOLATING T CELL RECEPTORS HAVING ANTIGENIC SPECIFICITY FOR A CANCER-SPECIFIC MUTATION” (The United State of America, as represented by the …, priority 2014, published 2017)

Test system: 3737-TIL
Experiment: Co-culture of 3737-TIL with TMG-RNA-transfected autologous DCs; flow cytometry for activation markers 4-1BB and OX40
Format: cell-based, human
Experimental: APCs (DCs or B cells) were harvested, washed 1× with PBS, and then resuspended in Opti-MEM (Life Technologies) at 10-30×10^6 cells/ml. IVT RNA (4 μg or 8 μg) was aliquoted to the bottom of a 2 mm gap electroporation cuvette, and 50 μl or 100 μl of APCs were added directly to the cuvette. The final RNA concentration used in electroporations was thus 80 μg/ml. Electroporations were carried out using a BTX-830 square wave electroporator. DCs were electroporated with 150 V, 10 ms, and 1 pulse, and B cells were electroporated with 150 V, 20 ms, and 1 pulse. Transfection efficiencies using these settings were routinely between 70-90% as assessed with GFP RNA (data not shown). All steps were carried out at room temperature. Following electroporation, cells were immediately transferred to polypropylene tubes containing DC- or B-cell media supplemented with the appropriate cytokines. Transfected cells were incubated overnight (12-14 h) at 37° C., 5% CO2. Cells were washed 1× with PBS prior to use in co-culture assays.
When DCs were used as APCs, approximately 3.5×10^4 to 7×10^4 DCs were used per well of a 96-well flat or round-bottom plate. When B cells were used as APCs, approximately 2×10^5 cells were used per well of a 96-well round-bottom plate. In ELISPOT assays, 1×10^3 to 1×10^4 effector T cells were used per well, and in flow cytometry assays, 1×10^5 effector T cells were used per well. T cells were typically thawed and rested in IL-2 containing 50/50 media (3000 IU/ml IL-2) for two days and then washed with PBS (3×) prior to co-culture assays. All co-cultures were performed in the absence of exogenously added cytokines. For all assays, plate-bound OKT3 (0.1 μg/ml or 1 μg/ml) was used as a positive control.
Expression of the T-cell activation markers OX40 and 4-1BB was assessed by flow cytometry at approximately t=22-26 h post-stimulation. Briefly, cells were pelleted, washed with FACS buffer (1×PBS supplemented with 1% FBS and 2 mM EDTA), and then stained with the appropriate antibodies for approximately 30 min, at 4° C. in the dark. Cells were washed at least once with FACS buffer prior to acquisition on a BD FACSCanto II flow cytometer. All data were gated on live (PI negative), single cells.
The TMG constructs were then used as templates for the generation of in vitro transcribed (IVT) RNA. Each of these IVT TMG RNAs was then individually transfected into autologous APCs (DCs) followed by a co-culture with TIL to determine whether any of the processed and presented mutated antigens were recognized by TIL. It was observed that 3737-TIL were reactive to a mutated antigen present in TMG-1, but not TMG-2 or TMG-3 (FIG. 1A). […] Tables 4A and 4B show the percentage of 3737-TIL detected by flow cytometry as having the indicated phenotype following coculture with DCs cultured with the non-specific stimulator OKT3 or DCs transfected with green fluorescent protein (GFP) RNA, or the indicated tandem mini-gene (TMG) construct encoding the various mutations identified by whole-exomic sequencing. Mock-transfected cells were treated with transfection reagent only without addition of nucleic acid. Data were gated on live CD3+ cells.
3737-TIL were co-cultured with DCs transfected with TMG-1 or TMG-1 encoding the wild-type (wt) ERBB2IP reversion, and flow cytometry was used to assess OX40 and Vβ22 expression on CD4+ T cells at 24 hours post-stimulation. Plate-bound OKT3 stimulation was used as a positive control.

[1] = 3737-TIL CD4+ T cells, 24 hours post-stimulation
[2] = percentage of 3737-TIL after co-culture with transfected DCs or OKT3, gated on live CD3+ cells

OKT3: anti-CD3 antibody, non-specific stimulator, plate-bound positive control
Vβ22+/OX40+ [1]: 44% | Vβ22+/OX40− [1]: 6% | Vβ22−/OX40+ [1]: 31% | Vβ22−/OX40− [1]: 19% | 4-1BB+/CD4+ [2]: 32% | 4-1BB+/CD4− [2]: 41% | 4-1BB−/CD4+ [2]: 23% | 4-1BB−/CD4− [2]: 4% | OX40+/CD4+ [2]: 45% | OX40+/CD4− [2]: 6% | OX40−/CD4+ [2]: 11% | OX40−/CD4− [2]: 38%
